In brackets after ≈: the same amount, converted by molar mass. Where two headings read alike, the source gives them in different places.
Tests used:
[1] = test system: E. coli HP73; assay: microbe, parasite or virus in culture; type: cell-based, Escherichia coli; conditions: read-out: MICs, E. coli HP73
Description: (§1) Escherichia coli ATCC25922, E. coli UB1005, Pseudomonas aeruginosa ATCC27853, Salmonella typhimurium ATCC14028, S. typhimurium C7731, Staphylococcus aureus ATCC29213, Methicillin-resistant S. aureus (MRSA) ATCC43300, S. epidermidis ATCC12228, and Enterococcus faecalis ATCC29212 were stored by the institute of animal nutrition, Northeast Agricultural University (Harbin, China). Multidrug-Resistant E. coli HP73 and E. coli HP74 were clinically isolated from swine-derived Escherichia coli and stored by the institute of animal nutrition, Northeast Agricultural University (Harbin, China).
(§2) The MICs were determined using a broth microdilution method with reference to Clinical and Laboratory Standards Institute (CLSI) guidelines ([Wiegand et al., 2008]). After a two-fold serial dilution of the peptides (50 μl, dilution buffer: 0.01% acetic acid containing 0.2% BSA) prepared in a 96-well plate, a series of an equal volume of bacterial solution (50 μl) prepared in Mueller-Hinton broth (MHB) were added to the same 96-well plate, and the final bacterial inoculum size in each well of the 96-well plate was approximately 5 × 10^5 CFU/ml. As positive and negative controls, bacteria solution without peptides and blank samples without bacteria were prepared in the same 96-well plate. […] The lowest peptide concentration at which there was no increase in optical density was referred to as the MIC.

[2] = test system: E. coli HP74; assay: microbe, parasite or virus in culture; type: cell-based, Escherichia coli; conditions: read-out: MICs, E. coli HP74
Description: as §1, §2

[3] = test system: IPEC-J2; assay: MTT cytotoxicity assay; type: cell-based, porcine; conditions: 1 day incubation
Procedure: (§3) 3-(4,5-dimethylthiozol-2-yl)-2,5-diphenyltetrazolium bromide (MTT) assay and live/dead cell staining assay were conducted to assess the peptide cytotoxicity. For the MTT assay, cell lines were seeded and passaged twice in high-glucose Dulbecco’s modified Eagle’s medium (DMEM, containing 100 μg/ml streptomycin, 100 U/ml penicillin, and 10% vol/vol fetal bovine serum) or Dulbecco’s Modified Eagle Medium/Nutrient Mixture F-12 (DMEM/F-12, containing 100 μg/ml streptomycin, 100 U/ml penicillin, and 10% vol/vol fetal bovine serum) at a 5% CO2 incubator (37°C). The cells (approximately 50,000 cells per well) were cultured in a 96-well plate at a 5% CO2 incubator for 1 day. Then various concentrations of peptide solutions (50 μl) were added to the plate and incubated for another 1 day. The cells solution without peptides and blank samples without cells and peptides were prepared in the same 96-well plate as positive and negative controls, respectively. Subsequently, MTT (0.5 mg/ml, 20 μl per well) was added and the plate was incubated for another 4 h. Removed all supernatant from the plate and added 150 μl of dimethyl sulfoxide. Finally, a microplate reader (Tecan GENios F129004, Austria) was used to record the absorbance data at OD570 nm. Melittin was employed as a control peptide. The cell viability was calculated using the previously described equation ([Lai et al., 2021]).

[4] = test system: HEK293T; assay: MTT cytotoxicity assay; type: cell-based, human; conditions: 1 day incubation
Procedure: as §3

[5] = Escherichia coli, HP73, multidrug-resistant, colistin-resistant swine clinical isolate, broth microdilution, MHB, 37°C 20 h
[6] = Escherichia coli, HP74, multidrug-resistant, colistin-resistant swine clinical isolate, broth microdilution, MHB, 37°C 20 h
[7] = multidrug-resistant, colistin-resistant swine clinical isolate, broth microdilution, MHB, 37°C 20 h

Row | Compound | MIC [1, 5] [µM] | MIC [2, 6] [µM] | also measured
1 | CC(C)(O/N=C(\C(=O)N[C@@H]1C(=O)N2C(C(=O)[O-])=C(C[n+]3ccccc3)CS[C@H]12)c1csc(N)n1)C(=O)O [Ceftazidime] | 128 (≈ 70 µg/mL) | 32 (≈ 17.5 µg/mL) | 
2 | CC[C@H]1OC(=O)[C@H](C)[C@@H](O[C@H]2C[C@@](C)(OC)[C@@H](O)[C@H](C)O2)[C@H](C)[C@@H](O[C@@H]2O[C@H](C)C[C@H](N(C)C)[C@H]2O)[C@](C)(O)C[C@@H](C)C(=O)[C@H](C)[C@@H](O)[C@]1(C)O [Erythromycin] | > 128 | > 128 | 
3 | CNC(C)C1CCC(N)C(OC2C(N)CC(N)C(OC3OCC(C)(O)C(NC)C3O)C2O)O1 (stereo not shown) [Gentamicin] | 128 (≈ 61.1 µg/mL) | 128 (≈ 61.1 µg/mL) | 
4 | CC[C@H](C)[C@H](NC(=O)CN)C(=O)NCC(=O)N[C@@H](C)C(=O)N[C@H](C(=O)N[C@@H](CC(C)C)C(=O)N[C@@H](CCCCN)C(=O)N[C@H](C(=O)N[C@@H](CC(C)C)C(=O)N[C@H](C(=O)N[C@H](C(=O)NCC(=O)N[C@@H](CC(C)C)C(=O)N1CCC[C@H]1C(=O)N[C@@H](C)C(=O)N[C@@H](CC(C)C)C(=O)N[C@H](C(=O)N[C@@H](CO)C(=O)N[C@@H](Cc1c[nH]c2ccccc12)C(=O)N[C@H](C(=O)N[C@@H](CCCCN)C(=O)N[C@@H](CCCNC(=N)N)C(=O)N[C@@H](CCCCN)C(=O)N[C@@H](CCCNC(=N)N)C(=O)N[C@@H](CCC(N)=O)C(=O)N[C@@H](CCC(N)=O)C(N)=O)[C@@H](C)CC)[C@@H](C)CC)[C@@H](C)O)[C@@H](C)O)C(C)C)C(C)C [Melittin, reference compound] |  |  | Concentration above which significant cytotoxicity toward IPEC-J2 [3]: > 16 µM; Concentration above which significant cytotoxicity toward HEK293T [4]: greater than 8 μM
5 | CCn1cc(C(=O)O)c(=O)c2cc(F)c(N3CCNCC3)cc21 [Norfloxacin] | > 128 | 128 (≈ 40.9 µg/mL) | 
6 | CC1COc2c(N3CCN(C)CC3)c(F)cc3c(=O)c(C(=O)O)cn1c23 (stereo not shown) [Ofloxacin] | > 128 | > 128 | 
7 | CO[C@H]1/C=C/O[C@@]2(C)Oc3c(C)c(O)c4c(O)c(c(/C=N/N5CCN(C)CC5)c(O)c4c3C2=O)NC(=O)/C(C)=C\C=C\[C@H](C)[C@H](O)[C@@H](C)[C@@H](O)[C@@H](C)[C@H](OC(C)=O)[C@@H]1C [Rifampicin] | > 128 | 16 (≈ 13.2 µg/mL) | 
8 | CN[C@H](CC(C)C)C(=O)N[C@H]1C(=O)N[C@@H](CC(N)=O)C(=O)N[C@H]2C(=O)N[C@H]3C(=O)N[C@H](C(=O)N[C@H](C(=O)O)c4cc(O)cc(O)c4-c4cc3ccc4O)[C@H](O)c3ccc(c(Cl)c3)Oc3cc2cc(c3O[C@@H]2O[C@H](CO)[C@@H](O)[C@H](O)[C@H]2O[C@H]2C[C@](C)(N)[C@H](O)[C@H](C)O2)Oc2ccc(cc2Cl)[C@H]1O [Vancomycin] |  |  | MIC ([1]; Escherichia coli, HP73, 20 h): 64 µM (≈ 92.8 µg/mL); MIC ([2]; Escherichia coli, HP74, 20 h): 32 µM (≈ 46.4 µg/mL)
9 | Colistin |  |  | MIC [1, 7]: 4 µM; MIC [2, 7]: 4 µM
10 | Kanamycin A |  |  | MIC [1, 7]: >128 µM; MIC [2, 7]: >128 µM
11 | Polymyxin B |  |  | MIC [1, 7]: 8 µM; MIC [2, 7]: 4 µM
